Test results published in patent US7629172B2, “Entrapped binding protein as biosensors” (Becton, Dickinson and Company, priority 2002, dated 2009).

Tests used:
[1] = Change in fluorescence of reporter-labeled GGBP mutants in solution on glucose addition; type: biochemical; conditions: GGBP-H6 NBD
Experimental: Labeled mutated maltose binding protein S337C MBP with fluorophore reporter probe NBD used herein in accordance with the procedure set forth by Cass, A. et al. (Anal. Chem. 1994, 66, 3840-3847). Fluorescence emission spectra of mutated, labeled protein was measured using an SLM Aminco fluorimeter (Ontario, Canada) with slit settings of 8 and 4 for excitation and settings of 5 and 5 on the MC250 emission monochromator to compare the ligand-binding performance of the entrapped fluorophore-labeled proteins in various matrixes to the performance of the same proteins in solution. The initial fluorescence emission intensity is defined as Io. The relative ratio of the emission intensity maxima in the presence of the protein's respective ligand (If) to the ligand's absence (Io) is defined as ΔF.
This example describes generically the labeling of binding protein with reporter probe. An aliquot of mutant GGBP containing cysteine (4.0 nmol) in PBS was treated with 2 mM dithiothreitol (5 μL, 10 nmol) for 30 min. A stock solution of N,N′-dimethyl-N-(iodoacetyl)-N′-(7-nitrobenz-2-oxa-1,3-diazol-4-yl)ethylenediamine (IANBD amide, 0.5 mg) was prepared in DMSO (100 μL, 11.9 mM) and 3.36 μL (40 nmol) was added to the protein. The reaction proceeded at room temperature for 4 h on a Dynal rotamix in the dark. The labeled protein was purified by gel filtration on a NAP-5 column (Amersham Pharmacia). The labeling rations were determined using an estimated extinction coefficient (50 mM^−1 cm^−1) for GGBP that was calculated in GeneWorks 2.45 (IntelliGenetics), ε478 (IANBD amide)=25 mM^−1cm^−1), and a measurement of O.D. for a standard solution of IANBD amide at 280 nm and 478 nm. The dye concentration in the protein was calculated as […]. The absorbance of protein at 280 nm was calculated as Aprot(280)=Atotal(280)−Adye(280), where Adye(280)=A478×(A280/A478)standard. The concentration of protein was then […].

[2] = GGBP L238C/A213C in dialysis membrane on fiber optic, reversibility of signal; type: biochemical; conditions: cycles between PBS buffer and 2 mM, 20 mM glucose; emission 521 nm; FIG. 4
Experimental: This example describes the immobilization of a biosensor of the instant invention into a dialysis membrane matrix and the ability of the matrix to provide reversible and continuous readings. Using a Varian Eclipse fluorimeter with a fiber optic attachment, GGBP L238C/A213C protein (2 μM in PBS buffer) entrapped within a dialysis membrane having a molecular cut-off of 3500 Daltons affixed to the distal end of the fiber. Solutions were prepared containing PBS buffer, 2 mM, and 20 mM glucose in PBS buffer. With the probe in PBS solution, readings were recorded at 0.02 seconds intervals of the emission wavelength 521 nm, followed by insertion of the fiber into the glucose solutions.

[3] = Kd of labeled GGBP entrapped in optimized GMSC sol-gel; type: binding; conditions: protein entrapped in optimized sol-gel formulation
Experimental: (§1) Binding constants were determined by titration of increasing concentrations of glucose into a protein solution with mixing following each addition of glucose. Slit settings were the same as listed above. The Kd was determined from the following relationships as adapted from Pisarchick and Thompson (1990):
Entrapment Of Binding Proteins In GMSC Sol-Gels Containing Functionalized Silicone Additives (FSA) and Polymers. This example describes the addition of polymer and organic polyol additives to optimize the GMSC sol-gels for entrapping binding proteins to both maintain and enhance their spectral properties upon ligand binding. The binding proteins were labeled with a fluorophore (as described in example 3). The protein solutions were added during the final hydrolysis/gelling step described previously to produce final concentrations of 2-4 μM protein within the sol-gel. […] Polymer additives were evaluated in amounts between 0 to about 30 wt. Functionalized silicone additives (FSA) were evaluated as additives to the GMSC sol-gels in amounts from 0 to about 0.6% mole ratio. […] Fluorescence emission was measured with a Varian Cary Eclipse scanning fluorometer with microwell plate adapter (Varian Instruments, Victoria, Australia). Excitation was at 475 nm and emission recorded from 500 to 600 nm, typically monitoring emission maximum peak fluorescence. […]

[4] = ΔF of labeled GGBP entrapped in optimized GMSC sol-gel (96 well microplate); type: biochemical
Experimental: Entrapment Of Binding Proteins In GMSC Sol-Gels Containing Functionalized Silicone Additives (FSA) and Polymers. This example describes the addition of polymer and organic polyol additives to optimize the GMSC sol-gels for entrapping binding proteins to both maintain and enhance their spectral properties upon ligand binding. The binding proteins were labeled with a fluorophore (as described in example 3). The protein solutions were added during the final hydrolysis/gelling step described previously to produce final concentrations of 2-4 μM protein within the sol-gel. The polymer additives and FSA's were obtained from Sigma-Aldrich Chemicals (St. Louis, Mo.). Polymer additives were evaluated in amounts between 0 to about 30 wt. Functionalized silicone additives (FSA) were evaluated as additives to the GMSC sol-gels in amounts from 0 to about 0.6% mole ratio. Thus, rotary evaporation of the GMSC reagent to remove methanol from its storage solution was followed by reconstitution in water in a 1:1 ratio by weight. […] Fluorescence emission was measured with a Varian Cary Eclipse scanning fluorometer with microwell plate adapter (Varian Instruments, Victoria, Australia). Excitation was at 475 nm and emission recorded from 500 to 600 nm, typically monitoring emission maximum peak fluorescence. […]

[5] = Binding constant (Kd) by titration of glucose into labeled protein solution
Experimental: as §1
where F is fluorescence intensity, Finf is fluorescence at infinity, F0 is fluorescence at zero glucose, and x is the free concentration of glucose ([Glc]free) as determined by the relationship:
where [Glc]tot and [Prot]tot are the total concentrations of glucose and protein, respectively.

[6] = GGBP H152C entrapped in UV cross-linked SbQ-PVA hydrogel, glucose challenge; type: biochemical
Experimental: This example describes the entrapment of GGBP H152C in UV cross-linked hydrogel matrix and the effect of the matrix on the fluorescence change and binding affinity. In this experiment SbQ-PVA from Polysciences Inc. was added 100 ul of PBS buffer and mixed for one hour to mix in a rotary mixer. 80 ul of this solution was then mixed with 20 ul of labeled protein. Final protein concentration was spectroscopically determined to be 0.15 mg/ml. After mixing, aliquiots were dispensed into 96-well plates and dried in a chamber maintained at 20% humidity for 12 h followed by curing with UV light. Wells containing protein encapsulated in matrix were challenge with 2 ul of 10 mM glucose and compared to protein solution without matrix having equivalent protein loading.

[7] = ΔF of H152 GGBP-H6 NBD entrapped in sol-gel matrixes vs solution; type: biochemical; conditions: ratio If/Io, matrix containing H152 GGBP-H6 NBD
[8] = from 0 to 1 mM Glc at 0.5 μM [NBD]
[9] = GGBP-H6 NBD, solution, measured at 0.1 μM [dye], read-out: Solution Kd
[10] = protein in solution, read-out: Kd (mM) [solution value]

Molecule | Kd [5, 9] | Δ F(%) [1, 8] | also measured
D14C: GGBP-H6 NBD mutant, cysteine substituted for aspartic acid at position 14 |  | 1% | 
D287C: GGBP-H6 NBD mutant, cysteine substituted for aspartic acid at position 287 |  | 4% | 
E149C, A213S, L238S: GGBP-H6 NBD triple mutant | 470 µM | 480% | 
E149C, N256S: GGBP-H6 NBD double mutant |  | 1% | 
H152C, A213S: GGBP-H6 NBD double mutant | 160 µM | 100% | 
H 152 C GGBP-NBD: glucose/galactose binding protein with cysteine at position 152, His6 tag, labeled with NBD |  |  | Kd of the entrapped protein ([6]; SbQ-PVA UV cross-linked hydrogel): comparable to that obtained in solution; response to the analyte (fluorescence) vs solution ([6]; SbQ-PVA hydrogel, 10 mM glucose challenge, FIG. 3): equivalent to that obtained in solution; ΔF (10 mM Glucose) [7]: 1.53; Kd [3]: 360 µM; ΔF (enhancement vs. solution) ([4]; sugar challenge 10 mM glucose): 2.93x; Kd [5, 10]: 70 µM
K11C: GGBP-H6 NBD mutant, cysteine substituted for lysine at position 11 |  | 10% | 
K113C: GGBP-H6 NBD mutant, cysteine substituted for lysine at position 113 |  | 15% | 
K137C: GGBP-H6 NBD mutant, cysteine substituted for lysine at position 137 | 0.04 µM |  | 
L238C: GGBP-H6 NBD mutant, cysteine substituted for leucine at position 238 |  |  | Δ F(%) ([1]; measured from 0 to 100 mM Glc): +3%
S112C, L238S: GGBP-H6 NBD double mutant |  | 6% | 
wild type: wild type E. coli galactose/glucose binding protein (GGBP-H6), intrinsic fluorescence [reference compound] | 0.2 µM |  | 
E149C, M182C, A213C, L238S: GGBP-H6 NBD mutant with four amino acid substitutions (protein, UniProt P0AEE5 24-332, looked up, variant E149C M182C A213C L238S, His6 tag, NBD fluorophore label, GGBP-H6 NBD mutant with four amino acid substitutions) D-galactose/methyl-galactoside …: ADTRIGVTIYKYDDNFMSVVRKAIEQDAKAAPDVQLLMNDSQNDQSKQNDQIDVLLAKGVKALAINLVDPAAAGTVIEKARGQNVPVVFFNKEPSRKALDSYDKAYYVGTDSKESGIIQGDLIAKHWAANQGWDLNKDGQIQFVLLKGCPGHPDAEARTTYVIKELNDKGIKTEQLQLDTACWDTAQAKDKMDAWLSGPNANKIEVVIANNDCMAMGAVEALKAHNKSSIPVFGVDASPEALALVKSGALAGTVLNDANNQAKATFDLAKNLADGKGAADGTNWKIDNKVVRVPYVGVDKDNLAEFSKK |  | 200% | 

More lines, main results first:

Kd [5, 9] | Molecule | Δ F(%) [1, 8] | also measured
6000 µM | A213C, L238C: GGBP-H6 NBD double mutant, cysteines at positions 213 and 238 | 24% | Δ F(%) ([1]; measured from 0 to 100 mM Glc): 67%; reversibility of signal [2]: return of initial signal; Kd [3]: 2200 µM; ΔF (enhancement vs. solution) ([4]; sugar challenge 100 mM glucose): 2.36x; Kd [5, 10]: 6000 µM
35000 µM | E149C, A213R, L238S: GGBP-H6 NBD triple mutant | 500% | 
1000 µM | E149C, A213R: GGBP-H6 NBD double mutant |  | 
80 µM | E149C, L238S: GGBP-H6 NBD double mutant |  | 
0.2 µM | E149C: GGBP-H6 NBD mutant, cysteine substituted for glutamic acid at position 149 | 300% | 
0.9 µM | G74C: GGBP-H6 NBD mutant, cysteine substituted for glycine at position 74 |  | 
0.2 µM | N43C: GGBP-H6 NBD mutant, cysteine substituted for asparagine at position 43 | 40% | 
0.8 µM | R292C: GGBP-H6 NBD mutant, cysteine substituted for arginine at position 292 |  | 
0.1 µM | V19C: GGBP-H6 NBD mutant, cysteine substituted for valine at position 19 |  | 
1 µM | Y107C: GGBP-H6 NBD mutant, cysteine substituted for tyrosine at position 107 |  | 
